Data published in patent US20180298405A1, “METHODS AND COMPOSITIONS TO INCREASE HUMAN SOMATIC CELL NUCLEAR TRANSFER (SCNT) EFFICIENCY BY REMOVING HISTONE H3-LYSINE TRIMETHYLATION, AND DERIVATION OF HUMAN NT-ESC” (CHILDREN'S MEDICAL CENTER CORPORATION, priority 2015, published 2018).

Assays:
H3K9me3 = experiment: Immunostaining of H3K9me3 in 1-cell mouse SCNT embryos after mRNA injection; type: cell-based; conditions: 1-cell stage, 5 hours after mRNA injection
Method: Mouse somatic cell nuclear transfer was carried out as described previously (Matoba et al., 2014). Briefly, both recipient MII oocytes and donor cumulus cells were collected from adult BDF1 female mice through superovulation by injecting 7.5 IU of pregnant mare serum gonadotropin (PMSG; Millipore #367222) and 7.5 IU of human chorionic gonadotropin (hCG; Millipore #230734). Fifteen to seventeen hours after the hCG injection, cumulus-oocyte complexes (COCs) were collected from the oviducts and treated briefly with Hepes-buffered potassium simplex-optimized medium (KSOM) containing 300 U/ml bovine testicular hyaluronidase (Calbiochem #385931) to obtain dissociated MII oocytes and cumulus cells. Isolated MII oocytes were enucleated in Hepes-buffered KSOM medium containing 7.5 jig/ml of cytochalasin B (Calbiochem #250233) by using Piezo-driven micromanipulator (Primetech # PMM-150FU). The nuclei of donor cumulus cells were injected into the enucleated oocytes. After 1 h incubation in KSOM, reconstructed SCNT oocytes were activated by incubating in Ca-free KSOM containing 2.5 mM SrCl2 and 5 jig/ml cytochalasin B for 1 h, and further cultured in KSOM with cytochalasin B for 4 h. […] Preimplantation developmental rates were analyzed by Student's T-test. […]

human SCNT blastocysts = experiment: Derivation of human NTK-ESCs from KDM4A-assisted SCNT blastocysts; type: cell-based
Method: All expanded blastocysts were treated with acid Tyrode solution to remove the zona pellucida, then the entire blastocysts (without removing trophectoderm) were plated onto mitotically-inactivated mouse fibroblasts (MEFs, Global Stem Inc.) in knockout-DMEM supplemented with Knockout Serum Replacement (10% SR, Invitrogen), FBS (10% Hyclone), bFGF (30 ng/ml), human LIF (2000 units/ml, Sigma-Aldrich), and ROCK inhibitor (1 uM, Sigma-Aldrich). The derivation medium was not changed for the next 3 days, then 1/2 medium was replaced with fresh medium without the ROCK inhibitor daily as previously described (Chung et al., 2008). After 3 passages, the amount of FBS was reduced to 2%, replacing it with SR. After 5 passages, the ES cells were cultured in DMEM/F12 supplemented with FGF (8 ng/ml, Invitrogen), SR (18%, Invitrogen), and FBS (2% Hyclone). After the 10 passages, the ES cells were maintained in DMEM/F12 supplemented with FGF (8 ng/ml) and 20% SR.

KDM4A mRNA: in vitro transcribed mRNA of full length human KDM4A/JHDM3A cDNA, an H3K9me3 demethylase (SEQ ID NO: 1)
H3K9me3 levels in the nucleus of mouse SCNT embryos (H3K9me3): greatly reduced H3K9me3 levels
stable NT-ESC lines derived (human SCNT blastocysts; after five passages, from eight expanded blastocysts): four stable NT-ESC lines
expanded blastocysts attached to MEF feeder cells and initiated outgrowth (human SCNT blastocysts; of eight expanded blastocysts): Seven out of the eight
